Format in all cases: cell-based
Assay [1] relates to Porphyromonas gingivalis W83, ATCC33277 and M1217. Nature of the assay: Antibacterial test, propagation by turbidity in broth (Example 1). Conditions: medium containing 0.1 mM or 1.0 mM trifluoromethionine, FIGS. 1-3. How it is done:
(§1) 3 ml of GAM broth (Nissui Medical) containing 5 μg/ml of hemin and 1 μg/ml of menadione was separately incubated with one platinum loop each of subcultures of strains Porphyromonas gingivalis W83, ATCC33277 and M1217, and strain Fusobacterium nucleatum ATCC10953, followed by incubation at 37° C. under anaerobic conditions (10% CO2, 10% H2, 80% N2) overnight. The same fresh medium as above was inoculated with the resulting culture in such an amount that an absorbance at 550 nm of the inoculated medium could be about 0.15, followed by incubation under the same condition as above. Furthermore, the above-mentioned strains were incubated in the above-mentioned medium further containing 0.1 mM or 1.0 mM trifluoromethionine. Absorbance at 550 nm of the individual cultures was measured with time to evaluate propagation of bacteria through the turbidity of the medium. Results are shown in FIG. 1 to 4 (A to D), where the results of using the trifluoromethionine-free medium are shown by □ curve, and those of using media containing 0.1 mM and 1.0 mM trifluoromethionine, respectively, are shown by ▪ and ● curves.

Assay [2] has as its system Fusobacterium nucleatum ATCC10953. Described as above. Conditions: medium containing 0.1 mM or 1.0 mM trifluoromethionine, FIG. 4. How it is done:
as §1

Assay [3] has as its system Staphylococcus epidermidis ATCC12228. Nature of the assay: MIC by agar plate dilution method on standard strains (Example 3). As to the method: (§2) Minimum growth-inhibiting concentrations of trifluoromethionine and other antibacterial drugs on standard strains were determined by an agar plate dilution method according to the standard method of Japanese Society of Chemotherapy.
(§3) Drug solutions at a concentration 10 times as high as the maximum applicable concentration were prepared as original solutions of test drugs given in Table 2 (as to solvents used for this purpose, reference should be made also to Table 2). Serial two-fold dilution series of the original solutions were prepared at desired stages, and 1 ml each of the diluted drug solutions was added to 9 ml of media given in Table 3 to prepare drug plates. Concentration range of the individual drugs used are as follows: trifluoromethionine: 400-0.025 μg/ml (15 stages), tetracycline: 100-0.025 μg/ml (13 stages), and clarithromycin: 100-0.025 μg/ml (13 stages).
(§4) • 1) Bacterial solutions stocked at −80° C. were inoculated on agar media (as to media used, reference should be made to Table 3), and then incubated at 37° C. overnight. When desired, subculturing was conducted once more on the same agar media (by overnight incubation at 37° C.). • 2) Colonies growing on the agar media were sampled by a platinum loop, suspended in liquid media (reference should be made to Table 3) and statically incubated at 37° C. for 18 hours (preculturing). • 3) Preculturing was continued up to McFarland 0.5 (McFarland 0.5=about 10^8 CFU/ml), and then the culture broths were diluted with Muellar Hinton Broth to make 10^6 CFU/ml. 5 μl each of the diluted solutions were inoculated on the above-mentioned drug plates by an inoculator Microplanter.
(§5) Thus, bacterial solutions at about 10^8 CFU/ml can be easily prepared by use of McFarland 0.5. Bacterial solutions at such a turbidity are commercially available, but can be easily prepared. McFarland 0.5 can be obtained by adding 0.5 ml of an aqueous 0.048 mol/l barium chloride solution to 99.5 ml of 1% v/v (0.18 mol/l) sulfuric acid. • 4) The individual bacteria were incubated at 37° C. for 18-20 hours and then the growth was determined in the same manner as in Example 2 to obtain minimum growth-inhibiting concentrations.

Assay [4] relates to Staphylococcus epidermidis ATCC29886. The description is as above. How it is done:
as §2, §3, §4, §5

The test system of assay [5] is Escherichia coli BL 21. Briefly: Antibacterial test, propagation by turbidity in broth (Example 1). Conditions: medium containing 0.1 mM or 1.0 mM trifluoromethionine, FIG. 6.
Assay [6] concerns Actinobacillus actinomycetemcomitans Y4. Described as above. Conditions: medium containing 0.1 mM or 1.0 mM trifluoromethionine, FIG. 5.
Assay [7] deals with Porphyromonas gingivalis W50. Nature of the assay: Minimum growth-inhibiting concentration on agar media (Example 2). Conditions: P. gingivalis W50, anaerobic, 37° C., 48-72 hours. How it is done: (§6) 3 ml of GAM broth (Nissui Medical) containing 5 μg/ml of hemin and 1 μg/ml of menadione was separately inoculated with one platinum loop each of subcultures of causative bacteria of periodontal disease, strains Porphyromonas gingivalis W83, W50, ATCC49417 and ATCC33277, strain Actinobacillus actinomycetemcomitans Y4, and strains Fusobacterium nucleatum ATCC10953 and ATCC25586, followed by incubation at 37° C. under anaerobic conditions (10% CO2, 10% H2 and 80% N2) overnight. Then, the resulting cultures were diluted to 10^−8, 10^−6, 10^−4 and 10^−3 to make inoculating bacterial solutions, respectively.
(§7) Agar media containing 400, 200, 100, 50, 25, 10 and 5 μg/ml of TFM, respectively, were prepared and streaked, about 2 cm long, with a platinum loop each of the above-prepared inoculating bacterial solutions, followed by incubation under the same anaerobic conditions as above at 37° C. for 48-72 hours to evaluate growth of the bacteria.

In assay [8] the test system is Porphyromonas gingivalis W83. The assay is described as above. Conditions: P. gingivalis W83, anaerobic, 37° C., 48-72 hours. As to the method: as §6, §7
In assay [9] the test system is Porphyromonas gingivalis ATCC49417. The assay is described as above. Conditions: P. gingivalis ATCC 49417, anaerobic, 37° C., 48-72 hours. How it is done: as §6, §7
For assay [10], the system named is Actinobacillus actinomycetemcomitans Y4. The description is as above. The note with it: A. actinomycetemcomitans Y4, anaerobic, 37° C., 48-72 hours. As to the method: as §6, §7
Assay [11] relates to Fusobacterium nucleatum ATCC10953. Described as above. Conditions: F. nucleatuium ATCC 10953, anaerobic, 37° C., 48-72 hours. How it is done: as §6, §7
The subject of assay [12] is Fusobacterium nucleatum ATCC25586. Described as above. Conditions: F. nucleatuium ATCC 25586, anaerobic, 37° C., 48-72 hours. As to the method:
as §6, §7

Assay [13] has as its system Porphyromonas gingivalis ATCC33277. The description is as above. Conditions: P. gingivalis ATCC 33277, anaerobic, 37° C., 48-72 hours. How it is done:
as §6, §7

Some results are limits rather than exact numbers.

As usually defined, the MIC is the smallest concentration in the dilution series that meets the test's criterion for growth inhibition. Low values mean a more susceptible organism, high ones a less susceptible organism. In the case of `N[C@@H](CCSC(F)(F)F)C(=O)O` [TFM, Trifluoromethionine], the “antibacterial effect (propagation of bacteria, absorbance at 550 nm)” value in [1] is recorded as “remarkable antibacterial effects”; in assay [2], “remarkable antibacterial effects”; in [5] it was “failed to show a significant antibacterial effect”; in assay [6], “remarkable antibacterial effects”. Moreover, the minimal inhibitory concentration (MIC) in assay [3] and in assay [4] was more than 400 µg/mL throughout. The Minimum growth-inhibiting concentration in assay [7] was 5 µg/mL; in [8], 5 µg/mL; in [9], 5 µg/mL; in assay [10], 10 µg/mL; in [11] it was 25 µg/mL; in assay [12], 25 µg/mL. This compound also came in with a Minimum growth-inhibiting concentration in assay [13] of 5 µg/mL.
